Experimental data: patent US10052321B2, “Nanoparticulate compositions and formulations of piperazine compounds” (Rexahn Pharmaceuticals, Inc., priority 2013, dated 2018)

Experiments:
Solubility in water = type: physicochemical
Experimental: This poor solubility in water makes it difficult to deliver the compound and related compounds of formula (1) and has limited clinical development, thus creating a need for the development of a formulation suitable for clinical use. The present invention was developed with a goal of obtaining a suitable formulation that can provide a stable suspension of the compound at a concentration of about 100 mg/mL or a dried formulation that could be either delivered orally or used to prepare a stable suspension. While the invention is described and exemplified primarily with respect to 1-(3,5-dimethoxyphenyl)-4-[(6-fluoro-2-methoxyquinoxalin-3-yl)aminocarbonyl]piperazine, it is to be understood that the invention is applicable to other compounds of formula (1).
1-(3,5-Dimethoxyphenyl)-4-[(6-fluoro-2-methoxyquinoxalin-3-yl)aminocarbonyl]piperazine has a very poor solubility in water, less than 0.1 μg/ml, and its solubility was tested in several co-solvents. […] Thus, these classical formulations are not useful in clinical use, although they could be used in some limited purpose in pre-clinical studies.
Particles were crystalline and irregularly shaped. FIG. 1 illustrates particles of 1-(3,5-Dimethoxyphenyl)-4-[(6-fluoro-2-methoxyquinoxalin-3-yl)aminocarbonyl]piperazine at 400× Magnification. […]

[1] = Particle size of unmilled API by laser diffraction; type: physicochemical; conditions: dispersed in aqueous solution of Aerosol OT
Excerpt: (§1) API morphology can be characterized by optical microscopy (e.g., Olympus BX51 microscope with Clemex JS-2000 controller). Differential scanning calorimetry (e.g., Mettler-Toledo DSC 1) and thermogravimetric analysis (e.g., Mettler-Toledo TGA/DSC 1) can be used to measure the thermal characteristics of the material. Particle size measurements can be made throughout by, for example, laser diffraction (e.g. Horiba LA-950V2), by dispersing the material, either in water, when surfactant is present in the test sample or in a dilute solution of poloxamer when no other dispersant was present.
Based on chemical structure, the refractive index of 1-(3,5-dimethoxyphenyl)-4-[(6-fluoro-2-methoxyquinoxalin-3-yl)aminocarbonyl]piperazine was predicted to be 1.637. For particle size measurements, the imaginary component of the refractive index, or the i-value (a unitless factor used by the laser diffraction algorithm to account for the absorption of light by the particles) was determined to be 0.1. Unmilled 1-(3,5-Dimethoxyphenyl)-4-[(6-fluoro-2-methoxyquinoxalin-3-yl)aminocarbonyl]piperazine dispersed readily in an aqueous solution of (Aerosol OT). The median particle size (D50) measured at 13 μm.

[2] = Thermal analysis (TGA / DSC); type: physicochemical
Excerpt: as §1
Mass loss after 220° C. may be attributable to thermal degradation.
Differential scanning calorimetry (see FIG. 4) confirmed the endotherm related to the initial mass loss at 108° C.

[3] = Oral bioavailability in animal model studies; type: in vivo
Excerpt: Because of the poor aqueous solubility of 1-(3,5-dimethoxyphenyl)-4-[(6-fluoro-2-methoxyquinoxalin-3-yl)aminocarbonyl]piperazine, production of a submicron suspension needed to be developed as a viable oral delivery option to avoid the need to administer large volumes of a 1-(3,5-dimethoxyphenyl)-4-[(6-fluoro-2-methoxyquinoxalin-3-yl)aminocarbonyl]piperazine solution to achieve the intended dosage levels.

Structure (SMILES): COc1cc(OC)cc(N2CCN(C(=O)Nc3nc4cc(F)ccc4nc3OC)CC2)c1 [Compound A, 1-(3,5-Dimethoxyphenyl)-4-[(6-fluoro-2-methoxyquinoxalin-3-yl)aminocarbonyl]piperazine]
- solubility (Solubility in water): < 0.1 µg/mL
- solubility in water (Solubility in water): practically insoluble
- median particle size (D50) [1]: 13 μm
- thermal stability ([2]; TGA and DSC data): thermally stable
- no indication of decomposition until ([2]; differential scanning calorimetry): 223 °C
- oral bioavailability [3]: good oral bioavailability
